From US10934255B2, “Nrf and HIF activators/HDAC inhibitors and therapeutic methods using the same” (THE BOARD OF TRUSTEES OF THE UNIVERSITY OF ILLINOIS, priority 2017, dated 2021)
Like-named read-outs stand apart in the source and are kept apart here.

Target: T1, Human HDAC6 (Homo sapiens, UniProt Q9UBN7)
T1 construct: Full length with N-terminal GST tag, MW=159 kDa; GST (N); host or cells: Sf9 insect cells (baculovirus)
T1 sequence (Q9UBN7 1-1215): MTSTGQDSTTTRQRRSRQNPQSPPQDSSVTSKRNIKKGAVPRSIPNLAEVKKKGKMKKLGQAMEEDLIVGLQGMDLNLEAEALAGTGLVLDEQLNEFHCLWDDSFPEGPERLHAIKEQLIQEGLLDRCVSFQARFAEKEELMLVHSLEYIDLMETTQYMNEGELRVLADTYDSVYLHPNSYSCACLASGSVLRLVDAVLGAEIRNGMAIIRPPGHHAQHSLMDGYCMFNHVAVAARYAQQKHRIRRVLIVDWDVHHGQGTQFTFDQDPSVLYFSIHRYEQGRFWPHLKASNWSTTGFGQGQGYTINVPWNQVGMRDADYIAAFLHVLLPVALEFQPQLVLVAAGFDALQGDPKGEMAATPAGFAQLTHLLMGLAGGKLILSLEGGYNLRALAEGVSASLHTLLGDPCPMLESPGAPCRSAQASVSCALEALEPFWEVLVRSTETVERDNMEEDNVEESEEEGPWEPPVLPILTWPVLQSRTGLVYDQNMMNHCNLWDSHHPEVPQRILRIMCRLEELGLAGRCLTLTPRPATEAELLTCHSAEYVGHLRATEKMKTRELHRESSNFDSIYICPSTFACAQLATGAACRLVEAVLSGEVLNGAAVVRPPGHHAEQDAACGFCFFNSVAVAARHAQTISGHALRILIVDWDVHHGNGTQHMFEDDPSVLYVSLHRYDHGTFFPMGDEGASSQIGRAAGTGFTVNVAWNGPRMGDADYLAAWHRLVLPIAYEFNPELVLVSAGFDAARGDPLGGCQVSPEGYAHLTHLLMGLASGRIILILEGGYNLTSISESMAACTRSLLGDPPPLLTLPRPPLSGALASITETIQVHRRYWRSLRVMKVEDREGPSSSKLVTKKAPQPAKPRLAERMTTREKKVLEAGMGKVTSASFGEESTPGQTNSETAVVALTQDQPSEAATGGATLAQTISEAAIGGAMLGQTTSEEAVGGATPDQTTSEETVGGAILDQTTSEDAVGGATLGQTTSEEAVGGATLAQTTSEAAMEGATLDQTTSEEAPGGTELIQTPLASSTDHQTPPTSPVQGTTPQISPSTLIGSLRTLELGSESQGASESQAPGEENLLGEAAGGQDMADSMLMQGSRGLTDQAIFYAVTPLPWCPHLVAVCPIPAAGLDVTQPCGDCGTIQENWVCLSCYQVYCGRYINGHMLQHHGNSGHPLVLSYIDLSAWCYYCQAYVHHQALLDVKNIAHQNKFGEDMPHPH
Assay: HDAC6 inhibition assay (fluorogenic p53 peptide substrate)
Type: biochemical
Experimental: The HDAC1, 2, 4, 5, 6, 7, 8, 9, 10, and 11 assays used isolated recombinant human protein; HDAC3/NcoR2 complex was used for the HDAC3 assay. Substrate for HDAC1, 2, 3, 6, 10, and 11 assays is a fluorogenic peptide from p53 residues 379-382 (RHKKAc); substrate for HDAC8 is fluorogenic diacyl peptide based on residues 379-382 of p53 (RHKAcKAc). Acetyl-Lys(trifluoroacetyl)-AMC substrate was used for HDAC4, 5, 7, and 9 assays. Compounds were dissolved in DMSO and tested in 10-dose IC50 mode with 3-fold serial dilution starting at 30 μM. Control Compound Trichostatin A (TSA) was tested in a 10-dose IC50 with 3-fold serial dilution starting at 5 μM. IC50 values were extracted by curve-fitting the dose/response slopes. Assays were performed in duplicate and IC50 values are an average of data from both experiments.
Human HDAC6 (GenBank Accession No. BC069243): Full length with N-terminal GST tag, MW=159 kDa, expressed by baculovirus expression system in Sf9 cells. Enzyme is in 50 mM Tris-HCl, pH 8.0, 138 mM NaCl, 20 mM glutathione, and 10% glycerol, and stable for >6 months at −80° C. Purity is >90% by SDS-PAGE. Specific Activity is 50 U/μg, where one U=1 pmol/min under assay condition of 25 mM Tris/Cl, pH8.0, 137 mM NaCl, 2.7 mM KCl, 1 mM MgCl2, and 0.1 mg/ml BSA, 30 μM HDAC substrate, and 5 ng/μl HDAC6, incubation for 60 min at 30° C.
Substrate for HDAC1 and HDAC6: Acetylated peptide substrate for HDAC, based on residues 379-382 of p53 (Arg-His-Lys-Lys(Ac)), a site of regulatory acetylation by the p300 and CBP acetyltransferases (lysines 381, 382)1-6, is the best for HDAC from among a panel of substrates patterned on p53, histone H3 and histone H4 acetylation sites7.
Reaction Buffer: 50 mM Tris-HCl, pH 8.0, 137 mM NaCl, 2.7 mM KCl, 1 mM MgCl2, 1 mg/ml BSA.
HDAC6: 12.6 nM HDAC6 and 50 μM HDAC substrate are in the reaction buffer and 1% DMSO final. Incubate for 2 hours at 30° C.
All IC50 values are automatically calculated using the GraphPad Prism version 5 and Equation of Sigmoidal dose-response (variable slope): Y=Bottom+(Top−Bottom)/(1+10^((Log EC50−X)*HillSlope)), where X is the logarithm of concentration, Y is the response, Y starts at Bottom and goes to Top with a sigmoid shape. In most cases, “Bottom” is set 0, and “Top” is set “less than 120%”. This is identical to the “four parameter logistic equation”. IC50 curves also are drawn using the GraphPad Prism, and IC50 values and Hill slopes are provided.
HDAC Activity Assays: HDAC assay is performed using fluorescently-labeled acetylated substrate, which comprises an acetylated lysine side chain. After incubation with HDAC, deacetylation of the substrate sensitizes the substrate such that, in a second step, treatment with the detection enzyme produces a fluorophore. HDACs 1 and 6 were expressed as full length fusion proteins. Purified proteins were incubated with 50 μM fluorescently-labeled acetylated peptide substrate and test compound for 2 hours at RT in HDAC assay buffer containing 50 mM Tris-HCl (pH 8.0), 137 mM NaCl, 2.7 mM KCl, 1 mM MgCl2, 1% DMSO, and 1% BSA.
Reactions were terminated by the addition of the Developer after 2 hours, and the development of fluorescence signal, which was relative to the amount of deacetylated peptide, was monitored by time-course measurement of EnVision (PerkinElmer). The HDAC activity was estimated from the slope of time-course measurement of the fluorescence intensity. The slope of no-enzyme control (substrate alone) was served as background, and % Enzyme activity was calculated using background-subtracted slope of no inhibitor control (DMSO) as 100% activity.

[1] = Table 1, performed by Reaction Biology Corporation, read-out: HDAC isoform IC50 (nM) 6
[2] = Table 2 isoform selectivity, read-out: HDAC Inhibition (IC50 uM) isoform 6

| Structure (SMILES) | IC50 [1] [nM] | IC50 [2] [nM] |
| --- | --- | --- |
| O=C(NO)c1ccc(CN2CCc3ccc(Cl)cc32)cc1 [II-ING-6, 4-((6-Chloroindolin-1-yl)methyl)-N-hydroxybenzamide] | 11.5 | 9 |
| Cn1c(NCc2ccc(C(=O)NO)cc2)nc2ccccc21 [II-ING-13, N-Hydroxy-4-(((1-methyl-1H-benzo[d]imidazol-2-yl)amino)methyl)benzamide] | 11 | 9 |
| O=C(NO)c1ccc(CN2CCc3cc(Cl)ccc32)cc1 [II-ING-39, 4-((5-Chloroindolin-1-yl)methyl)-N-hydroxybenzamide] | 21.5 |  |
| O=C(NO)c1ccc(CN2CCc3ccc(F)cc32)cc1 [II-ING-41, 4-((6-Fluoroindolin-1-yl)methyl)-N-hydroxybenzamide] | 16.7 | 4 |
| O=C(NO)c1ccc(CN2CCc3cc(F)ccc32)cc1 [II-ING-42, 4-((5-Fluoroindolin-1-yl)methyl)-N-hydroxybenzamide] | 13.1 |  |
| O=C(NO)c1ccc(CN2CCc3ccccc32)cc1 [II-ING-44, N-Hydroxy-4-(indolin-1-ylmethyl)benzamide] | 26.8 |  |
| COc1ccc2c(c1)CCN2Cc1ccc(C(=O)NO)cc1 [II-ING-49, N-Hydroxy-4-((5-methoxyindolin-1-yl)methyl)benzamide] | 11.5 |  |
| O=C(NO)c1ccc(CN2C(=O)C(F)(F)c3ccccc32)cc1 [II-ING-66, 4-((3,3-Difluoro-2-oxoindolin-1-yl)methyl)-N-hydroxybenzamide] | 4.1 |  |
